Test results reported in US20080261970A1, “Sufonamides and Uses Thereof” (ELIXIR PHARMACEUTICALS, INC., priority 2004, published 2008).
No end group written: not given here.

System: mice
Assay: fast refeed (fast-refeeding) assay
Format: in vivo
Protocol: In vivo assays. Exemplary in vivo assays include the fast-refeeding assay described in Example 1 and as follows.
Food is removed at 6 pm for an overnight (˜16 hour) fast. Beginning at 10 am on the next morning, mice are administered with either vehicle (e.g., saline+acetic acid, pH=5) or the compound of interest. Mice are then returned to their home cages and pre-weighed food (approximately 90 grams) is immediately returned to the food hoppers in each cage. The weight of the food remaining in the food hoppers is measured at 30 minutes, 1 hour, 2 hours, and 4 hours post compound/vehicle administration. Final body weights are then recorded for the mice.

For “substance P (RPKPQQFFGLM; ends and bridges not checked; UniProt P20366 58-68, looked up)”, the feeding activity was “alters feeding activity”.
